Results reported in US6399598B1, “Diheterocyclic metalloprotease inhibitors” (The Procter & Gamble Company, priority 1996, dated 2002).

Columns and labels:
Type in all cases: in vivo
[1] = test system: premetastatic tumor; experiment: Injection beside a premetastatic tumor in a human subject (Example G); conditions: 100 mg/ml suspension, approx. 2.0 ml injected beside the tumor twice daily, after 30 days
Protocol: A composition for parenteral administration is made comprising: The above ingredients are mixed, forming a suspension. Approximately 2.0 ml of the suspension is administered, via injection, to a human subject with a premetastatic tumor. The injection site juxtaposes the tumor. This dosage is repeated twice daily, for approximately 30 days.

[2] = test system: rheumatoid arthritis; experiment: Treatment of a rheumatoid arthritis patient with oral tablets (Example A); conditions: human female, three 15 mg tablets per day orally for 2 years
Protocol: A tablet composition for oral administration, according to the present invention, is made comprising:
A human subject weighing 60 kg (132 lbs), suffering from rheumatoid arthritis, is treated by a method of this invention. Specifically, for 2 years, a regimen of three tablets per day is administered orally to said subject.

[3] = test system: chemical burns; experiment: Topical composition in a patient with chemical burns (Example D); conditions: 0.20% w/v topical composition at each dressing change (b.i.d.)
Excerpt: An topical composition for local administration, according to the present invention, is made comprising:
A patient suffering from chemical burns applies the composition at each dressing change (b.i.d.).

[4] = test system: osteoarthritis; experiment: Treatment of an osteoarthritis patient with oral capsules (Example B); conditions: human male, capsule with 70 mg daily for 5 years
Protocol: A capsule for oral administration, according to the present invention, is made comprising:
A human subject weighing 90 kg (198 lbs), suffering from osteoarthritis, is treated by a method of this invention. Specifically, for 5 years, a capsule containing 70 mg of Example 3 is administered daily to said subject.

COc1ccc(S(=O)(=O)N2CCN(C(C)C)C(=O)C[C@@H]2C(=O)NO)cc1 [Example 4, N-Hydroxy 1-(1-Methylethyl)-4-[(4-methoxyphenyl)sulfonylamino]-7-oxo-1,4-diazepine-5(R)-carboxamide]
symptoms of the disease [1]: symptoms of the disease subside

COc1ccc(S(=O)(=O)N2CCSCCC2C(=O)NO)cc1 (centres unmarked) [Example 9, N-Hydroxy-4-[(4-methoxyphenyl)sulfonyl]-thiazepine-5-carboxamide]
inflammation at the end of the treatment period [2]: reduced inflammation
mobility and pain at the end of the treatment period [2]: improved mobility without concomitant pain

COc1ccc(S(=O)(=O)N2CN(Cc3ccccc3)C(=O)C(C)(C)C2C(=O)NO)cc1 (racemic) [Example 3, N-Hydroxy 1-Benzyl-5,5-dimethyl-3-[(4-methoxyphenyl)sulfonyl]-6-oxo-hexahydro-pyrimidine-4(R,S)-carboxamide]
scarring [3]: Scarring is substantially diminished
erosion/fibrillation of the articular cartilage, examined via orthoscopy [4]: no further advancement of erosion/fibrillation of the articular cartilage
